Assay results as given in patent US20070015833A1 (priority 2005, published 2007).

Assay: small volume in vitro release in 50 ml 0.1N HCl
Format: physicochemical
Details: 37° C., 150 rpm
Experimental: The formulations were tested for their small volume in vitro release characteristics in 50 ml 0.1N HCl at 37° C. and 150 rpm using the following procedure: III. Instrumentation (or Equivalent) a. Automated Dissolution System comprising of: Hanson SR8 Plus Test Station Hanson Auto Plus Maximiser System Controller Hanson Auto Plus MultiFill Fraction Collector b. HPLC System comprising of: pump—Merck Hitachi L-7100 autoinjector—Merck Hitachi L-7200 column oven—Merck Hitachi L-7300 detector—Merck Hitachi L-7400 interface and integration software—Merck Hitachi D-7000
0.1N HCl Preparation Dilute 8.5 ml HCl 37% to 1 liter with purified water. Procedure Place one weighed capsule in each vessel containing 0.1N HCl and immediately operate the apparatus for 30 min. Unless otherwise specified, 3 ml samples are withdrawn from each vessel and immediately filtered through PTFE membranes at 15 and 30 min.
The small volume was chosen as a model of the conditions in a fasted stomach.

CC(C)OC(=O)C(C)(C)Oc1ccc(C(=O)c2ccc(Cl)cc2)cc1 [Micronized Fenofibrate]
dissolution (in words): no dissolution at all | % dissolved 15 min (15 min): 0% | % dissolved 30 min (30 min): 0%
